Assay results from ChEMBL document CHEMBL1275533, “In vitro antibacterial activity of vertilmicin and its susceptibility to modifications by the recombinant AAC6'-APH2'' enzyme” (2008).
≈ marks a conversion by molar mass, not a printed value. Calls of active or inactive are those of the source. No cut-off for these calls is given here.

How the values were obtained:
[1] = test system: Escherichia coli; experiment: Antibacterial activity against non-gentamicin-resistant Escherichia coli clinical isolate after 18 hrs by agar dilution method; assay type: functional
[2] = test system: Citrobacter koseri; experiment: Antibacterial activity against non-gentamicin-resistant Citrobacter diversus clinical isolate after 18 hrs by agar dilution method; assay type: functional
[3] = test system: Proteus mirabilis; experiment: Antibacterial activity against non-gentamicin-resistant Proteus mirabilis clinical isolate after 18 hrs by agar dilution method; assay type: functional
[4] = test system: Serratia marcescens; experiment: Antibacterial activity against non-gentamicin-resistant Serratia marcescens clinical isolate after 18 hrs by agar dilution method; assay type: functional
[5] = test system: Morganella morganii; experiment: Antibacterial activity against non-gentamicin-resistant Morganella morganii clinical isolate after 18 hrs by agar dilution method; assay type: functional
[6] = test system: Citrobacter freundii; experiment: Antibacterial activity against non-gentamicin-resistant Citrobacter freundii clinical isolate after 18 hrs by agar dilution method; assay type: functional
[7] = test system: Haemophilus parainfluenzae; experiment: Antibacterial activity against non-gentamicin-resistant Haemophilus parainfluenzae clinical isolate after 18 hrs by agar dilution method; assay type: functional
[8] = test system: Staphylococcus epidermidis; experiment: Antibacterial activity against non-gentamicin-resistant Staphylococcus epidermidis clinical isolate after 18 hrs by agar dilution method; assay type: functional
[9] = test system: Escherichia coli; experiment: Antibacterial activity against non-gentamicin-resistant Escherichia coli clinical isolate assessed as susceptible isolates after 18 hrs by agar dilution method; assay type: functional
[10] = test system: Klebsiella pneumoniae; experiment: Antibacterial activity against non-gentamicin-resistant Klebsiella pneumoniae clinical isolate assessed as susceptible isolates after 18 hrs by agar dilution method; assay type: functional
[11] = test system: Citrobacter koseri; experiment: Antibacterial activity against non-gentamicin-resistant Citrobacter diversus clinical isolate assessed as susceptible isolates after 18 hrs by agar dilution method; assay type: functional
[12] = test system: Serratia marcescens; experiment: Antibacterial activity against non-gentamicin-resistant Serratia marcescens clinical isolate assessed as susceptible isolates after 18 hrs by agar dilution method; assay type: functional
[13] = test system: Citrobacter freundii; experiment: Antibacterial activity against non-gentamicin-resistant Citrobacter freundii clinical isolate assessed as susceptible isolates after 18 hrs by agar dilution method; assay type: functional
[14] = test system: Providencia rettgeri; experiment: Antibacterial activity against non-gentamicin-resistant Proteus rettgeri clinical isolate assessed as susceptible isolates after 18 hrs by agar dilution method; assay type: functional
[15] = test system: Acinetobacter calcoaceticus; experiment: Antibacterial activity against non-gentamicin-resistant Acinetobacter calcoaceticus clinical isolate assessed as susceptible isolates after 18 hrs by agar dilution method; assay type: functional
[16] = test system: Pseudomonas sp.; experiment: Antibacterial activity against non-gentamicin-resistant Pseudomonas spp. clinical isolate assessed as susceptible isolates after 18 hrs by agar dilution method; assay type: functional
[17] = test system: Haemophilus parainfluenzae; experiment: Antibacterial activity against non-gentamicin-resistant Haemophilus parainfluenzae clinical isolate assessed as susceptible isolates after 18 hrs by agar dilution method; assay type: functional, organism-based
[18] = test system: Staphylococcus aureus; experiment: Antibacterial activity against non-gentamicin-resistant Staphylococcus aureus clinical isolate assessed as susceptible isolates after 18 hrs by agar dilution method; assay type: functional
[19] = test system: Staphylococcus epidermidis; experiment: Antibacterial activity against non-gentamicin-resistant Staphylococcus epidermidis clinical isolate assessed as susceptible isolates after 18 hrs by agar dilution method; assay type: functional
[20] = test system: Escherichia coli; experiment: Antibacterial activity against gentamicin-resistant Escherichia coli clinical isolate after 18 hrs by agar dilution method; assay type: functional
[21] = test system: Enterobacter cloacae; experiment: Antibacterial activity against gentamicin-resistant Enterobacter cloacae clinical isolate after 18 hrs by agar dilution method; assay type: functional
[22] = test system: Klebsiella aerogenes; experiment: Antibacterial activity against gentamicin-resistant Enterobacter aerogenes clinical isolate after 18 hrs by agar dilution method; assay type: functional
[23] = test system: Citrobacter koseri; experiment: Antibacterial activity against gentamicin-resistant Citrobacter diversus clinical isolate after 18 hrs by agar dilution method; assay type: functional
[24] = test system: Proteus mirabilis; experiment: Antibacterial activity against gentamicin-resistant Proteus mirabilis clinical isolate after 18 hrs by agar dilution method; assay type: functional
[25] = test system: Serratia marcescens; experiment: Antibacterial activity against gentamicin-resistant Serratia marcescens clinical isolate after 18 hrs by agar dilution method; assay type: functional
[26] = test system: Morganella morganii; experiment: Antibacterial activity against gentamicin-resistant Morganella morganii clinical isolate after 18 hrs by agar dilution method; assay type: functional
[27] = test system: Citrobacter freundii; experiment: Antibacterial activity against gentamicin-resistant Citrobacter freundii clinical isolate after 18 hrs by agar dilution method; assay type: functional
[28] = test system: Providencia rettgeri; experiment: Antibacterial activity against gentamicin-resistant Proteus rettgeri clinical isolate after 18 hrs by agar dilution method; assay type: functional
[29] = test system: Acinetobacter calcoaceticus; experiment: Antibacterial activity against gentamicin-resistant Acinetobacter calcoaceticus clinical isolate after 18 hrs by agar dilution method; assay type: functional
[30] = test system: Pseudomonas sp.; experiment: Antibacterial activity against gentamicin-resistant Pseudomonas spp. clinical isolate after 18 hrs by agar dilution method; assay type: functional
[31] = test system: Staphylococcus aureus; experiment: Antibacterial activity against gentamicin-resistant Staphylococcus aureus clinical isolate after 18 hrs by agar dilution method; assay type: functional
[32] = test system: Staphylococcus epidermidis; experiment: Antibacterial activity against gentamicin-resistant Staphylococcus epidermidis clinical isolate after 18 hrs by agar dilution method; assay type: functional
[33] = test system: Escherichia coli; experiment: Antibacterial activity against gentamicin-resistant Escherichia coli clinical isolate assessed as susceptible isolates after 18 hrs by agar dilution method; assay type: functional
[34] = test system: Klebsiella pneumoniae; experiment: Antibacterial activity against gentamicin-resistant Klebsiella pneumoniae clinical isolate assessed as susceptible isolates after 18 hrs by agar dilution method; assay type: functional
[35] = test system: Klebsiella aerogenes; experiment: Antibacterial activity against gentamicin-resistant Enterobacter aerogenes clinical isolate assessed as susceptible isolates after 18 hrs by agar dilution method; assay type: functional
[36] = test system: Proteus mirabilis; experiment: Antibacterial activity against gentamicin-resistant Proteus mirabilis clinical isolate assessed as susceptible isolates after 18 hrs by agar dilution method; assay type: functional
[37] = test system: Serratia marcescens; experiment: Antibacterial activity against gentamicin-resistant Serratia marcescens clinical isolate assessed as susceptible isolates after 18 hrs by agar dilution method; assay type: functional
[38] = test system: Morganella morganii; experiment: Antibacterial activity against gentamicin-resistant Morganella morganii clinical isolate assessed as susceptible isolates after 18 hrs by agar dilution method; assay type: functional
[39] = test system: Citrobacter freundii; experiment: Antibacterial activity against gentamicin-resistant Citrobacter freundii clinical isolate assessed as susceptible isolates after 18 hrs by agar dilution method; assay type: functional
[40] = test system: Providencia rettgeri; experiment: Antibacterial activity against gentamicin-resistant Proteus rettgeri clinical isolate assessed as susceptible isolates after 18 hrs by agar dilution method; assay type: functional
[41] = test system: Acinetobacter calcoaceticus; experiment: Antibacterial activity against gentamicin-resistant Acinetobacter calcoaceticus clinical isolate assessed as susceptible isolates after 18 hrs by agar dilution method; assay type: functional
[42] = test system: Pseudomonas aeruginosa; experiment: Antibacterial activity against gentamicin-resistant Pseudomonas aeruginosa clinical isolate assessed as susceptible isolates after 18 hrs by agar dilution method; assay type: functional
[43] = test system: Pseudomonas sp.; experiment: Antibacterial activity against gentamicin-resistant Pseudomonas spp. clinical isolate assessed as susceptible isolates after 18 hrs by agar dilution method; assay type: functional
[44] = test system: Staphylococcus aureus; experiment: Antibacterial activity against gentamicin-resistant Staphylococcus aureus clinical isolate assessed as susceptible isolates after 18 hrs by agar dilution method; assay type: functional
[45] = test system: Staphylococcus epidermidis; experiment: Antibacterial activity against gentamicin-resistant Staphylococcus epidermidis clinical isolate assessed as susceptible isolates after 18 hrs by agar dilution method; assay type: functional
[46] = test system: Enterococcus faecalis; experiment: Antibacterial activity against gentamicin-resistant Enterococcus faecalis clinical isolate assessed as susceptible isolates after 18 hrs by agar dilution method; assay type: functional, organism-based
[47] = test system: Escherichia coli BL21(DE3); experiment: Phosphorylation activity of AAC(6')-APH(2'') in Escherichia coli BL21(DE3) assessed as oxidation of NADH by pyruvate kinase

CCN[C@@H]1C[C@H](N)[C@@H](O[C@H]2OC(CN)=CC[C@H]2N)[C@H](O)[C@H]1O[C@H]1OC[C@](C)(O)[C@H](NC)[C@H]1O [NETILMICIN]
MIC50 [1]: 0.5 µg/mL (≈ 1.05 µM)
MIC90 [1]: 0.5 µg/mL (≈ 1.05 µM)
MIC50 [2]: 0.5 µg/mL (≈ 1.05 µM)
MIC90 [2]: 0.5 µg/mL (≈ 1.05 µM)
MIC50 [3]: 1 µg/mL (≈ 2.1 µM)
MIC90 [3]: 2 µg/mL (≈ 4.21 µM)
MIC50 [4]: 1 µg/mL (≈ 2.1 µM)
MIC90 [4]: 4 µg/mL (≈ 8.41 µM)
MIC50 [5]: 1 µg/mL (≈ 2.1 µM)
MIC90 [5]: 2 µg/mL (≈ 4.21 µM)
MIC50 [6]: 1 µg/mL (≈ 2.1 µM)
MIC90 [6]: 16 µg/mL (≈ 33.6 µM)
MIC50 [7]: 1 µg/mL (≈ 2.1 µM)
MIC90 [7]: 2 µg/mL (≈ 4.21 µM)
MIC50 [8]: 0.25 µg/mL (≈ 0.526 µM)
MIC90 [8]: 1 µg/mL (≈ 2.1 µM)
Activity [9]: 100%
Activity [10]: 94%
Activity [11]: 100%
Activity [12]: 96.3%
Activity [13]: 83.3%
Activity [14]: 92.3%
Activity [15]: 87.8%
Activity [16]: 72.7%
Activity [17]: inactive
Activity [18]: 88.3%
Activity [19]: 100%
MIC50 [20]: 8 µg/mL (≈ 16.8 µM)
MIC90 [20]: 64 µg/mL (≈ 135 µM)
MIC50 [21]: 128 µg/mL (≈ 269 µM)
MIC90 [21]: > 128 µg/mL
MIC50 [22]: 32 µg/mL (≈ 67.3 µM)
MIC90 [22]: 128 µg/mL (≈ 269 µM)
MIC50 [23]: > 128 µg/mL
MIC90 [23]: > 128 µg/mL
MIC50 [24]: 16 µg/mL (≈ 33.6 µM)
MIC90 [24]: > 128 µg/mL
MIC50 [25]: > 128 µg/mL
MIC90 [25]: > 128 µg/mL
MIC50 [26]: 8 µg/mL (≈ 16.8 µM)
MIC90 [26]: 16 µg/mL (≈ 33.6 µM)
MIC50 [27]: 8 µg/mL (≈ 16.8 µM)
MIC90 [27]: > 128 µg/mL
MIC50 [28]: 16 µg/mL (≈ 33.6 µM)
MIC90 [28]: 128 µg/mL (≈ 269 µM)
MIC50 [29]: 128 µg/mL (≈ 269 µM)
MIC90 [29]: > 128 µg/mL
MIC50 [30]: > 128 µg/mL
MIC90 [30]: > 128 µg/mL
MIC50 [31]: 16 µg/mL (≈ 33.6 µM)
MIC90 [31]: 128 µg/mL (≈ 269 µM)
MIC50 [32]: 2 µg/mL (≈ 4.21 µM)
MIC90 [32]: 32 µg/mL (≈ 67.3 µM)
Activity [33]: 66.7%
Activity [34]: 17.9%
Activity [35]: 30%
Activity [36]: 36.4%
Activity [37]: 10%
Activity [38]: 41.7%
Activity [39]: 47.4%
Activity [40]: 40%
Activity [41]: 20%
Activity [42]: 2.9%
Activity [43]: 0%
Activity [44]: 47.2%
Activity [45]: 84.6%
Activity [46]: inactive
Km [47]: 308 µM
